{
  "source": "BindingDB's records for doi:10.1016/s0960-894x(03)00205-1",
  "about": "(Abbott Laboratories, 2003)",
  "data": [
    {"test": "Potassium channel opening activity in vitro using LtK cells transfected with Kir6.2/SUR2B exon 17", "units": {"EC50": "µM"}, "values": [
      {"smiles": "O=C(Nc1c(C(O)(C(F)(F)F)C(F)(F)F)ccc2ccccc12)c1ccc(Cl)cc1", "note": "[4-Chloro-N-[2-(2,2,2-trifluoro-1-hydroxy-1-trifluoromethyl-ethyl)-naphthalen-1-yl]-benzamide]", "EC50": 0.57},
      {"smiles": "Cc1cccc(C(=O)Nc2c(C(O)(C(F)(F)F)C(F)(F)F)ccc3ccccc23)c1", "note": "[3-Methyl-N-[2-(2,2,2-trifluoro-1-hydroxy-1-trifluoromethyl-ethyl)-naphthalen-1-yl]-benzamide]", "EC50": 0.023},
      {"smiles": "O=C(NCCCCCCCl)Nc1c(C(O)(C(F)(F)F)C(F)(F)F)ccc2ccccc12", "note": "[1-(6-Chloro-hexyl)-3-[2-(2,2,2-trifluoro-1-hydroxy-1-trifluoromethyl-ethyl)-naphthalen-1-yl]-urea]", "EC50": 4.84},
      {"smiles": "CC(C)CCC(=O)Nc1c(C(O)(C(F)(F)F)C(F)(F)F)ccc2ccccc12", "note": "[4-Methyl-pentanoic acid [2-(2,2,2-trifluoro-1-hydroxy-1-trifluoromethyl-ethyl)-naphthalen-1-yl]-amide]", "EC50": 0.049},
      {"smiles": "COc1cccc(C(=O)Nc2c(C(O)(C(F)(F)F)C(F)(F)F)ccc3ccccc23)c1", "note": "[3-Methoxy-N-[2-(2,2,2-trifluoro-1-hydroxy-1-trifluoromethyl-ethyl)-naphthalen-1-yl]-benzamide]", "EC50": 0.185},
      {"smiles": "O=C(CCc1ccccc1)Nc1c(C(O)(C(F)(F)F)C(F)(F)F)ccc2ccccc12", "note": "[3-Phenyl-N-[2-(2,2,2-trifluoro-1-hydroxy-1-trifluoromethyl-ethyl)-naphthalen-1-yl]-propionamide]", "EC50": 1.75},
      {"smiles": "CCCC(C)C(=O)Nc1c(C(O)(C(F)(F)F)C(F)(F)F)ccc2ccccc12", "note": "(stereo not given) [2-Methyl-pentanoic acid [2-(2,2,2-trifluoro-1-hydroxy-1-trifluoromethyl-ethyl)-naphthalen-1-yl]-amide]", "EC50": "> 10"},
      {"smiles": "CC(=O)Nc1c(C(O)(C(F)(F)F)C(F)(F)F)ccc2ccccc12", "note": "[N-[2-(2,2,2-Trifluoro-1-hydroxy-1-trifluoromethyl-ethyl)-naphthalen-1-yl]-acetamide]", "EC50": 0.018},
      {"smiles": "CC(C)OC(=O)Nc1c(C(O)(C(F)(F)F)C(F)(F)F)ccc2ccccc12", "note": "[[2-(2,2,2-Trifluoro-1-hydroxy-1-trifluoromethyl-ethyl)-naphthalen-1-yl]-carbamic acid isopropyl ester]", "EC50": 1.16},
      {"smiles": "Cc1ccc(C(=O)Nc2c(C(O)(C(F)(F)F)C(F)(F)F)ccc3ccccc23)cc1", "note": "[4-Methyl-N-[2-(2,2,2-trifluoro-1-hydroxy-1-trifluoromethyl-ethyl)-naphthalen-1-yl]-benzamide]", "EC50": 0.076},
      {"smiles": "O=C(Nc1c(C(O)(C(F)(F)F)C(F)(F)F)ccc2ccccc12)c1ccco1", "note": "[Furan-2-carboxylic acid [2-(2,2,2-trifluoro-1-hydroxy-1-trifluoromethyl-ethyl)-naphthalen-1-yl]-amide]", "EC50": 0.009},
      {"smiles": "O=C(Nc1c(C(O)(C(F)(F)F)C(F)(F)F)ccc2ccccc12)c1ccccc1", "note": "[N-[2-(2,2,2-Trifluoro-1-hydroxy-1-trifluoromethyl-ethyl)-naphthalen-1-yl]-benzamide]", "EC50": 0.044},
      {"smiles": "O=C(Nc1c(C(O)(C(F)(F)F)C(F)(F)F)ccc2ccccc12)c1ccc(C(F)(F)F)cc1", "note": "[N-[2-(2,2,2-Trifluoro-1-hydroxy-1-trifluoromethyl-ethyl)-naphthalen-1-yl]-4-trifluoromethyl-benzamide]", "EC50": 0.16},
      {"smiles": "O=C(Nc1c(C(O)(C(F)(F)F)C(F)(F)F)ccc2ccccc12)c1cc(Cl)cc(Cl)c1", "note": "[3,5-Dichloro-N-[2-(2,2,2-trifluoro-1-hydroxy-1-trifluoromethyl-ethyl)-naphthalen-1-yl]-benzamide]", "EC50": 0.306},
      {"smiles": "O=C(Nc1c(C(O)(C(F)(F)F)C(F)(F)F)ccc2ccccc12)c1ccc(F)cc1", "note": "[4-Fluoro-N-[2-(2,2,2-trifluoro-1-hydroxy-1-trifluoromethyl-ethyl)-naphthalen-1-yl]-benzamide]", "EC50": 0.07},
      {"smiles": "CCC(C)C(=O)Nc1c(C(O)(C(F)(F)F)C(F)(F)F)ccc2ccccc12", "note": "(stereo not given) [2-Methyl-N-[2-(2,2,2-trifluoro-1-hydroxy-1-trifluoromethyl-ethyl)-naphthalen-1-yl]-butyramide]", "EC50": 177},
      {"smiles": "CC(=O)Nc1c(C(O)(C(F)(F)F)C(F)(F)F)ccc2cc(O)ccc12", "note": "[N-[6-Hydroxy-2-(2,2,2-trifluoro-1-hydroxy-1-trifluoromethyl-ethyl)-naphthalen-1-yl]-acetamide]", "EC50": 2.22},
      {"smiles": "CC(C)C(=O)Nc1c(C(O)(C(F)(F)F)C(F)(F)F)ccc2ccccc12", "note": "[N-[2-(2,2,2-Trifluoro-1-hydroxy-1-trifluoromethyl-ethyl)-naphthalen-1-yl]-isobutyramide]", "EC50": 6.63},
      {"smiles": "Cc1ccccc1C(=O)Nc1c(C(O)(C(F)(F)F)C(F)(F)F)ccc2ccccc12", "note": "[2-Methyl-N-[2-(2,2,2-trifluoro-1-hydroxy-1-trifluoromethyl-ethyl)-naphthalen-1-yl]-benzamide]", "EC50": 5.55},
      {"smiles": "O=C(Nc1c(C(O)(C(F)(F)F)C(F)(F)F)ccc2ccccc12)c1cccc(Cl)c1", "note": "[3-Chloro-N-[2-(2,2,2-trifluoro-1-hydroxy-1-trifluoromethyl-ethyl)-naphthalen-1-yl]-benzamide]", "EC50": 0.098},
      {"smiles": "O=C(CC1CCCC1)Nc1c(C(O)(C(F)(F)F)C(F)(F)F)ccc2ccccc12", "note": "[2-Cyclopentyl-N-[2-(2,2,2-trifluoro-1-hydroxy-1-trifluoromethyl-ethyl)-naphthalen-1-yl]-acetamide]", "EC50": 0.081},
      {"smiles": "N#Cc1cccc(C(=O)Nc2c(C(O)(C(F)(F)F)C(F)(F)F)ccc3ccccc23)c1", "note": "[3-Cyano-N-[2-(2,2,2-trifluoro-1-hydroxy-1-trifluoromethyl-ethyl)-naphthalen-1-yl]-benzamide]", "EC50": 0.012},
      {"smiles": "O=C(Nc1c(C(O)(C(F)(F)F)C(F)(F)F)ccc2ccccc12)c1cccs1", "note": "[Thiophene-2-carboxylic acid [2-(2,2,2-trifluoro-1-hydroxy-1-trifluoromethyl-ethyl)-naphthalen-1-yl]-amide]", "EC50": 0.012},
      {"smiles": "O=C(Nc1c(C(O)(C(F)(F)F)C(F)(F)F)ccc2ccccc12)c1cnco1", "note": "[Oxazole-5-carboxylic acid [2-(2,2,2-trifluoro-1-hydroxy-1-trifluoromethyl-ethyl)-naphthalen-1-yl]-amide]", "EC50": 0.024},
      {"smiles": "O=C(Nc1c(C(O)(C(F)(F)F)C(F)(F)F)ccc2ccccc12)c1ccc(I)cc1", "note": "[4-Iodo-N-[2-(2,2,2-trifluoro-1-hydroxy-1-trifluoromethyl-ethyl)-naphthalen-1-yl]-benzamide]", "EC50": 0.154},
      {"smiles": "O=C(Nc1c(C(O)(C(F)(F)F)C(F)(F)F)ccc2ccccc12)c1cc2ccccc2s1", "note": "[Benzo[b]thiophene-2-carboxylic acid [2-(2,2,2-trifluoro-1-hydroxy-1-trifluoromethyl-ethyl)-naphthalen-1-yl]-amide]", "EC50": "> 10"},
      {"smiles": "O=C(Nc1c(C(O)(C(F)(F)F)C(F)(F)F)ccc2ccccc12)c1cccc(F)c1", "note": "[3-Fluoro-N-[2-(2,2,2-trifluoro-1-hydroxy-1-trifluoromethyl-ethyl)-naphthalen-1-yl]-benzamide]", "EC50": 0.044},
      {"smiles": "O=C(Nc1c(C(O)(C(F)(F)F)C(F)(F)F)ccc2ccccc12)c1cccnc1", "note": "[N-[2-(2,2,2-Trifluoro-1-hydroxy-1-trifluoromethyl-ethyl)-naphthalen-1-yl]-nicotinamide]", "EC50": 0.06},
      {"smiles": "O=C(Nc1c(C(O)(C(F)(F)F)C(F)(F)F)ccc2ccccc12)C1CCC1", "note": "[Cyclobutanecarboxylic acid [2-(2,2,2-trifluoro-1-hydroxy-1-trifluoromethyl-ethyl)-naphthalen-1-yl]-amide]", "EC50": 0.045},
      {"smiles": "O=C(Nc1ccc(Cl)cc1)Nc1c(C(O)(C(F)(F)F)C(F)(F)F)ccc2ccccc12", "note": "[1-(4-Chloro-phenyl)-3-[2-(2,2,2-trifluoro-1-hydroxy-1-trifluoromethyl-ethyl)-naphthalen-1-yl]-urea]", "EC50": 0.276},
      {"smiles": "O=C(Nc1c(C(O)(C(F)(F)F)C(F)(F)F)ccc2ccccc12)c1ccc(Cl)c(Cl)c1", "note": "[3,4-Dichloro-N-[2-(2,2,2-trifluoro-1-hydroxy-1-trifluoromethyl-ethyl)-naphthalen-1-yl]-benzamide]", "EC50": 0.194},
      {"smiles": "CC(=O)Nc1c(C(O)(C(F)(F)F)C(F)(F)F)cc(Br)c2ccccc12", "note": "[N-[4-Bromo-2-(2,2,2-trifluoro-1-hydroxy-1-trifluoromethyl-ethyl)-naphthalen-1-yl]-acetamide]", "EC50": 5.31},
      {"smiles": "CCCC(=O)Nc1c(C(O)(C(F)(F)F)C(F)(F)F)ccc2ccccc12", "note": "[N-[2-(2,2,2-Trifluoro-1-hydroxy-1-trifluoromethyl-ethyl)-naphthalen-1-yl]-butyramide]", "EC50": 0.131},
      {"smiles": "O=C(Nc1c(C(O)(C(F)(F)F)C(F)(F)F)ccc2ccccc12)c1cnc2ccccc2n1", "note": "[Quinoxaline-2-carboxylic acid [2-(2,2,2-trifluoro-1-hydroxy-1-trifluoromethyl-ethyl)-naphthalen-1-yl]-amide]", "EC50": 0.317},
      {"smiles": "COc1ccc(C(=O)Nc2c(C(O)(C(F)(F)F)C(F)(F)F)ccc3ccccc23)cc1", "note": "[4-Methoxy-N-[2-(2,2,2-trifluoro-1-hydroxy-1-trifluoromethyl-ethyl)-naphthalen-1-yl]-benzamide]", "EC50": 0.417},
      {"smiles": "C/C=C/C(=O)Nc1c(C(O)(C(F)(F)F)C(F)(F)F)ccc2ccccc12", "note": "[But-2-enoic acid [2-(2,2,2-trifluoro-1-hydroxy-1-trifluoromethyl-ethyl)-naphthalen-1-yl]-amide]", "EC50": 0.072},
      {"smiles": "CC(=O)Nc1c(C(O)(C(F)(F)F)C(F)(F)F)ccc2c(O)cccc12", "note": "[N-[5-Hydroxy-2-(2,2,2-trifluoro-1-hydroxy-1-trifluoromethyl-ethyl)-naphthalen-1-yl]-acetamide]", "EC50": 0.137},
      {"smiles": "O=C(Nc1c(C(O)(C(F)(F)F)C(F)(F)F)ccc2ccccc12)C1CCCC1", "note": "[Cyclopentanecarboxylic acid [2-(2,2,2-trifluoro-1-hydroxy-1-trifluoromethyl-ethyl)-naphthalen-1-yl]-amide]", "EC50": 0.495},
      {"smiles": "CCC(CC)C(=O)Nc1c(C(O)(C(F)(F)F)C(F)(F)F)ccc2ccccc12", "note": "[2-Ethyl-N-[2-(2,2,2-trifluoro-1-hydroxy-1-trifluoromethyl-ethyl)-naphthalen-1-yl]-butyramide]", "EC50": 4.34},
      {"smiles": "O=C(Nc1c(C(O)(C(F)(F)F)C(F)(F)F)ccc2ccccc12)c1ccc(-c2ccccc2)cc1", "note": "[Biphenyl-4-carboxylic acid [2-(2,2,2-trifluoro-1-hydroxy-1-trifluoromethyl-ethyl)-naphthalen-1-yl]-amide]", "EC50": "> 10"}
    ]}
  ]
}
